Source: patent US20080026417A1, “ASSAYS FOR TRICHOMONAL AND OTHER HYDROLASES” (priority 2002, published 2008)
Ends that are not written are not given here.

Experiments:
trichomonal hydrolases [1] = test: Experiment 12: hydrolysis of ZRRR-MNA by trichomonal hydrolases in four buffers; assay type: biochemical, Trichomonas vaginalis; conditions: for Score: substrate ZRRR-MNA, Fast Red RL, 0-9 scale
Method: Fifty μL of each buffer solution, at pH 2.0, 2.2, 2.4, or 2.6, was pipetted into separate wells of a microtiter plate. Twenty-five μL of 8 mM ZRRR-MNA and 25 μL of 10% trichomonal hydrolase solution were added to each well, and 20 μL were then removed from each well for measurement of final pH. Ten minutes after the mixtures were made, a Dacron swab was inserted into each well to absorb the liquid, then each swab was rubbed on a Fast Red RL film. The intensity of pink color that developed on each swab after five minutes was visually scored in 0.5 unit increments using the 0-9 color scale presented in Table 11.1 of the preceding example.

trichomonal hydrolases [2] = test: Experiment 13: hydrolysis of peptide substrates by trichomonal hydrolases at low pH, no vaginal fluid; assay type: biochemical, Trichomonas vaginalis; parameters: key: −: No red color produced; +: Clearly visible red color produced; ++: Moderately intense red color produced; +++: Very intense red color produced; conditions: without vaginal fluid; threonine buffer pH 2.4; 2 mM substrate solution; 10 min 25° C.; Fast Garnet
Method: (§1) Forty μL of each substrate was pipetted into duplicate wells of a microtiter plate. The plate was covered with tape, placed into a 25° C. incubator, and allowed to warm. A diluted enzyme mixture was prepared by mixing one part (v/v) freshly-thawed trichomonal hydrolase solution to nine parts 2 mM L-cysteine solution. Forty μL of this mixture was added to one well of each pair of duplicate wells. For negative controls, 40 μL of 2 mM L-cysteine was added to the second well in each pair of duplicate wells. The plate was returned to the incubator and incubated for ten minutes. Forty μL of SDS/acetate solution was added to each well, followed by 40 μL of Fast Garnet solution. The intensity of color that developed in each well after five minutes was visually scored using the color scale presented in Table 13.1.

trichomonal hydrolases [3] = test: Experiment 13: hydrolysis of peptide substrates by trichomonal hydrolases at low pH in vaginal fluid supernatant; assay type: biochemical, Trichomonas vaginalis; parameters: key: −: No red color produced; +: Clearly visible red color produced; ++: Moderately intense red color produced; +++: Very intense red color produced; conditions: Fast Garnet
Method: as §1
Of the nine substrates hydrolyzed by trichomonal hydrolases to produce an intense pink color (scoring ++ or +++) in the absence of vaginal fluid supernatant, only four produced intense pink color when vaginal fluid supernatant was present.

trichomonal hydrolases [4] = test: Experiment 1: hydrolysis of substrates by trichomonal hydrolases at pH 2.8-9.2, with or without normal vaginal fluid supernatant (NVS), absorbance 540 nm; assay type: biochemical, Trichomonas vaginalis; conditions: 540 nm
Method: Assays without normal vaginal fluid supernatant present: Two sets of six wells in a microtiter plate were prepared, with each well containing 80 μL of one of the six 200 mM buffers, 10 μL of water and 10 μL of diluted trichomonal hydrolases. Ten μL of ZRR-MNA was added to each well in the first set of wells, and 10 μl of VLK-MNA was added to each well in the second set of wells. After fifteen minutes, 100 μl of indicator solution was added to each well. Because a high pH can reduce the intensity of color produced by the indicator solution, 50 μl of 100 mM acetic acid buffer, pH 3.7, was added to each well except the pH 2.8 wells (water was substituted for the acetic acid in those wells). After another fifteen minutes, the absorbance of the solutions in the wells was measured on a microtiter plate reader set on 540 nm wavelength.
Assays with normal vaginal fluid supernatant (NVS) present: The procedure of the preceding paragraph was followed, except that 10 μL of diluted NVS was added to the wells in place of the 10 μL of water.

[5] = test system: non-trichomonal hydrolases present in vaginal fluid; test: Experiment 8: polypeptide inhibition of hydrolases in whole vaginal fluid of uninfected women; assay type: biochemical, human; parameters: key: 0: Yellow; 1: Peach; 2: Orange; 3: Light to medium pink; 4: Dark pink or red; 5: Fuchsia; 6: Purple; conditions: ZRR-MNA, 10 mM polypeptide in substrate solution
Method: (§2) The vaginal fluid was extracted from each swab by centrifugation, and then mixed to resuspend the particulate matter. For each donor, 2 μL of vaginal fluid was pipetted into each of ten microwells, then 2 μL of one of the ten substrate/buffer/polypeptide combinations was added to each well. Additionally, 2 μL of trichomonal hydrolases was mixed with 2 μL of each of the substrate/polypeptide combinations in set of ten wells. After fifteen minutes, 2 μL of indicator solution was added to each well.

trichomonal hydrolases [6] = test: Experiment 8: polypeptide inhibition of trichomonal hydrolases; assay type: biochemical, Trichomonas vaginalis; parameters: key: 0: Yellow; 1: Peach; 2: Orange; 3: Light to medium pink; 4: Dark pink or red; 5: Fuchsia; 6: Purple; conditions: 10 mM polypeptide in substrate solution
Method: as §2

[7] = test system: non-trichomonal hydrolases present in whole vaginal fluid; test: Experiment 9: dipeptide inhibition of hydrolases in whole vaginal fluid of uninfected women; assay type: biochemical, human; parameters: key: 0: Yellow; 1: Peach; 2: Orange; 3: Light to medium pink; 4: Dark pink or red; 5: Fuchsia; 6: Purple; conditions: ZRR-MNA, 10 mM dipeptide in substrate solution
Method: (§3) For each specimen, the vaginal fluid was extracted from the swab by centrifugation, 2 μL of the vaginal fluid supernatant was removed from the microfuge tube, and the remainder of the fluid was mixed to resuspend the particulate matter. For each specimen, 2 μL of the thus reconstituted vaginal fluid was pipetted into each of four microwells, then 2 μL of one of the four substrate/dipeptide combinations was added to each well. The 2 μL of vaginal fluid supernatant from each specimen was mixed with 18 μL of trichomonal hydrolases, and 2 μL of this mixture was mixed with 2 μL of each of the substrate/dipeptide combinations in another set of four wells. After fifteen minutes, 2 μL of indicator solution was added to each well.

trichomonal hydrolases [8] = test: Experiment 9: dipeptide inhibition of trichomonal hydrolases mixed with vaginal fluid supernatant; assay type: biochemical, Trichomonas vaginalis; parameters: key: 0: Yellow; 1: Peach; 2: Orange; 3: Light to medium pink; 4: Dark pink or red; 5: Fuchsia; 6: Purple; conditions: trichomonal hydrolase added, ZRR-MNA, 10 mM dipeptide in substrate solution
Method: as §3

[9] = pH 2.0 Buffer after mixing with substrate and trichomonal hydrolase solution
[10] = pH 2.2 Buffer after mixing with substrate and trichomonal hydrolase solution
[11] = pH 2.4 Buffer after mixing with substrate and trichomonal hydrolase solution
[12] = pH 2.6 Buffer after mixing with substrate and trichomonal hydrolase solution
[13] = pH 5, Donor A whole vaginal fluid
[14] = pH 5, Donor B whole vaginal fluid
[15] = pH 5, Donor C whole vaginal fluid
[16] = pH 5, Donor D whole vaginal fluid
[17] = pH 8, Donor A whole vaginal fluid
[18] = pH 8, Donor B whole vaginal fluid
[19] = pH 8, Donor C whole vaginal fluid
[20] = pH 8, Donor D whole vaginal fluid
[21] = Donor A vaginal fluid supernatant
[22] = Donor B vaginal fluid supernatant
[23] = Donor C vaginal fluid supernatant
[24] = Donor D vaginal fluid supernatant

O=C(O)CC(O)C(=O)O (racemic) [DL-malic acid]
Score (trichomonal hydrolases [1]; pH 2.0 Buffer (100 mM)): 4.5 | Final pH (trichomonal hydrolases [1]; [9]): pH 2.4 | Score (trichomonal hydrolases [1]; pH 2.2 Buffer (100 mM)): 5.5 | Final pH (trichomonal hydrolases [1]; [10]): pH 2.7 | Score (trichomonal hydrolases [1]; pH 2.4 Buffer (100 mM)): 6.0 | Final pH (trichomonal hydrolases [1]; [11]): pH 2.8 | Score (trichomonal hydrolases [1]; pH 2.6 Buffer (100 mM)): 6.0 | Final pH (trichomonal hydrolases [1]; [12]): pH 2.9

COc1cc(NC(=O)[C@H](CCCNC(=N)N)NC(=O)[C@@H](NC(=O)[C@H](Cc2ccccc2)NC(=O)c2ccccc2)C(C)C)cc2ccccc12 [BZ-Phe-Val-Arg-MNA]
Color Score (trichomonal hydrolases [2]): ++ | Color Score (trichomonal hydrolases [3]): +

COc1cc(NC(=O)[C@H](CCCN=C(N)N)NC(=O)[C@H](CCCN=C(N)N)NC(=O)[C@H](C)NC(=O)OCc2ccccc2)cc2ccccc12 [CBZ-Ala-Arg-Arg-MNA]
Color Score (trichomonal hydrolases [2]): ++ | Color Score (trichomonal hydrolases [3]): +

COc1cc(NC(=O)[C@H](CCCNC(=N)N)NC(=O)[C@H](Cc2ccccc2)NC(=O)OCc2ccccc2)cc2ccccc12 [CBZ-Phe-Arg-MNA]
Color Score (trichomonal hydrolases [2]): ++ | Color Score (trichomonal hydrolases [3]): +

NCC(=O)O [Glycine]
Score (trichomonal hydrolases [1]; pH 2.0 Buffer (100 mM)): 5.0 | Final pH (trichomonal hydrolases [1]; [9]): pH 2.4 | Score (trichomonal hydrolases [1]; pH 2.2 Buffer (100 mM)): 6.0 | Final pH (trichomonal hydrolases [1]; [10]): pH 2.6 | Score (trichomonal hydrolases [1]; pH 2.4 Buffer (100 mM)): 6.0 | Final pH (trichomonal hydrolases [1]; [11]): pH 2.7 | Score (trichomonal hydrolases [1]; pH 2.6 Buffer (100 mM)): 6.0 | Final pH (trichomonal hydrolases [1]; [12]): pH 2.9

NCCCC[C@H](N)C(=O)O [L-lysine]
Score (trichomonal hydrolases [1]; pH 2.0 Buffer (100 mM)): 3.0 | Final pH (trichomonal hydrolases [1]; [9]): pH 2.3 | Score (trichomonal hydrolases [1]; pH 2.2 Buffer (100 mM)): 4.5 | Final pH (trichomonal hydrolases [1]; [10]): pH 2.5 | Score (trichomonal hydrolases [1]; pH 2.4 Buffer (100 mM)): 5.0 | Final pH (trichomonal hydrolases [1]; [11]): pH 2.9 | Score (trichomonal hydrolases [1]; pH 2.6 Buffer (100 mM)): 5.5 | Final pH (trichomonal hydrolases [1]; [12]): pH 3.0

C[C@@H](O)[C@H](N)C(=O)O [L-threonine]
Score (trichomonal hydrolases [1]; pH 2.0 Buffer (100 mM)): 3.5 | Final pH (trichomonal hydrolases [1]; [9]): pH 2.3 | Score (trichomonal hydrolases [1]; pH 2.2 Buffer (100 mM)): 6.0 | Final pH (trichomonal hydrolases [1]; [10]): pH 2.4 | Score (trichomonal hydrolases [1]; pH 2.4 Buffer (100 mM)): 6.5 | Final pH (trichomonal hydrolases [1]; [11]): pH 2.7 | Score (trichomonal hydrolases [1]; pH 2.6 Buffer (100 mM)): 6.0 | Final pH (trichomonal hydrolases [1]; [12]): pH 2.9

COc1cc(NC(=O)C(CCCCN)NC(=O)C(CC(C)C)NC(=O)C(N)C(C)C)cc2ccccc12 [VLK-MNA, D-Val-Leu-Lys-MNA]
Color Score (trichomonal hydrolases [2]): ++ | Absorbance Readings (trichomonal hydrolases [4]; with vaginal fluid supernatant, Acetate pH 5.1): 0.065 | Absorbance Readings (trichomonal hydrolases [4]; with vaginal fluid supernatant, Borate pH 9.2): 0.062 | Absorbance Readings (trichomonal hydrolases [4]; with vaginal fluid supernatant, Gly-gly pH 2.8): 0.094 | Absorbance Readings (trichomonal hydrolases [4]; with vaginal fluid supernatant, HEPES pH 7.5): 0.063 | Absorbance Readings (trichomonal hydrolases [4]; with vaginal fluid supernatant, MOPS pH 7.0): 0.066 | Absorbance Readings (trichomonal hydrolases [4]; with vaginal fluid supernatant, TRIS pH 8.0): 0.073 | Absorbance Readings (trichomonal hydrolases [4]; without vaginal fluid supernatant, Acetate pH 5.1): 1.622 | Absorbance Readings (trichomonal hydrolases [4]; without vaginal fluid supernatant, Borate pH 9.2): 1.459 | Absorbance Readings (trichomonal hydrolases [4]; without vaginal fluid supernatant, Gly-gly pH 2.8): 0.691 | Absorbance Readings (trichomonal hydrolases [4]; without vaginal fluid supernatant, HEPES pH 7.5): 1.217 | Absorbance Readings (trichomonal hydrolases [4]; without vaginal fluid supernatant, MOPS pH 7.0): 1.087 | Absorbance Readings (trichomonal hydrolases [4]; without vaginal fluid supernatant, TRIS pH 8.0): 1.219 | Color Score (trichomonal hydrolases [3]): +

COc1cc(NC(=O)[C@H](CCCN=C(N)N)NC(=O)[C@H](CC(C)C)NC(=O)OCc2ccccc2)cc2ccccc12 [ZLR, CBZ-Leu-Arg-MNA]
Color Score (trichomonal hydrolases [2]): +++ | Color Score (trichomonal hydrolases [3]): +++

Arg-Lys-Asn-Val-Tyr (RKNVY; printed: Arg-Lys-Asn-Val-Tyr)
Hydrolase activity color score with polypeptide [5, 13]: 0.5 | Hydrolase activity color score with polypeptide [5, 14]: 0 | Hydrolase activity color score with polypeptide [5, 15]: 0 | Hydrolase activity color score with polypeptide [5, 16]: 0 | Hydrolase activity color score with polypeptide [5, 17]: 0.5 | Hydrolase activity color score with polypeptide [5, 18]: 0.5 | Hydrolase activity color score with polypeptide [5, 19]: 1 | Hydrolase activity color score with polypeptide [5, 20]: 1 | Hydrolase activity color score with polypeptide (trichomonal hydrolases [6]; pH 5, ZRR-MNA): 3 | Hydrolase activity color score with polypeptide (trichomonal hydrolases [6]; pH 8, ZRR-MNA): 3

KPQLWP
Hydrolase activity color score with polypeptide [5, 13]: 0 | Hydrolase activity color score with polypeptide [5, 14]: 0 | Hydrolase activity color score with polypeptide [5, 15]: 0 | Hydrolase activity color score with polypeptide [5, 16]: 0 | Hydrolase activity color score with polypeptide [5, 17]: 0.5 | Hydrolase activity color score with polypeptide [5, 18]: 0.5 | Hydrolase activity color score with polypeptide [5, 19]: 0 | Hydrolase activity color score with polypeptide [5, 20]: 0 | Hydrolase activity color score with polypeptide (trichomonal hydrolases [6]; pH 5, ZRR-MNA): 3 | Hydrolase activity color score with polypeptide (trichomonal hydrolases [6]; pH 8, ZRR-MNA): 3

Lysine-lysine
Hydrolase activity color score with dipeptide ([7]; Donor A whole vaginal fluid): 1 | Hydrolase activity color score with dipeptide ([7]; Donor B whole vaginal fluid): 0 | Hydrolase activity color score with dipeptide ([7]; Donor C whole vaginal fluid): 0 | Hydrolase activity color score with dipeptide ([7]; Donor D whole vaginal fluid): 2.5 | Hydrolase activity color score with dipeptide (trichomonal hydrolases [8]; [21]): 1 | Hydrolase activity color score with dipeptide (trichomonal hydrolases [8]; [22]): 2 | Hydrolase activity color score with dipeptide (trichomonal hydrolases [8]; [23]): 1 | Hydrolase activity color score with dipeptide (trichomonal hydrolases [8]; [24]): 2

Lysine-proline
Hydrolase activity color score with dipeptide ([7]; Donor A whole vaginal fluid): 0 | Hydrolase activity color score with dipeptide ([7]; Donor B whole vaginal fluid): 0 | Hydrolase activity color score with dipeptide ([7]; Donor C whole vaginal fluid): 0 | Hydrolase activity color score with dipeptide ([7]; Donor D whole vaginal fluid): 0 | Hydrolase activity color score with dipeptide (trichomonal hydrolases [8]; [21]): 1 | Hydrolase activity color score with dipeptide (trichomonal hydrolases [8]; [22]): 1 | Hydrolase activity color score with dipeptide (trichomonal hydrolases [8]; [23]): 0.5 | Hydrolase activity color score with dipeptide (trichomonal hydrolases [8]; [24]): 2

Lysine-valine
Hydrolase activity color score with dipeptide ([7]; Donor A whole vaginal fluid): 1 | Hydrolase activity color score with dipeptide ([7]; Donor B whole vaginal fluid): 0 | Hydrolase activity color score with dipeptide ([7]; Donor C whole vaginal fluid): 0 | Hydrolase activity color score with dipeptide ([7]; Donor D whole vaginal fluid): 1.5 | Hydrolase activity color score with dipeptide (trichomonal hydrolases [8]; [21]): 1 | Hydrolase activity color score with dipeptide (trichomonal hydrolases [8]; [22]): 2 | Hydrolase activity color score with dipeptide (trichomonal hydrolases [8]; [23]): 1 | Hydrolase activity color score with dipeptide (trichomonal hydrolases [8]; [24]): 2
